Data as given in patent US8778939B2, “Compounds” (Glaxo Group Limited, priority 2009, dated 2014).

Columns and labels:
[1] = target: T1, 6His-Tev-LRRK2 (1326-2527) (Homo sapiens, UniProt Q5S007); assay: LRRK2 AlphaScreen desensitised protein substrate assay; format: biochemical
T1 construct: A LRRK2 cDNA encoding residues 1326-2527 was received from Dundee University; made in house; host or cells: Spodoptera frugiperda (Sf9) insect cells, baculovirus
T1 sequence (Q5S007 1326-2527): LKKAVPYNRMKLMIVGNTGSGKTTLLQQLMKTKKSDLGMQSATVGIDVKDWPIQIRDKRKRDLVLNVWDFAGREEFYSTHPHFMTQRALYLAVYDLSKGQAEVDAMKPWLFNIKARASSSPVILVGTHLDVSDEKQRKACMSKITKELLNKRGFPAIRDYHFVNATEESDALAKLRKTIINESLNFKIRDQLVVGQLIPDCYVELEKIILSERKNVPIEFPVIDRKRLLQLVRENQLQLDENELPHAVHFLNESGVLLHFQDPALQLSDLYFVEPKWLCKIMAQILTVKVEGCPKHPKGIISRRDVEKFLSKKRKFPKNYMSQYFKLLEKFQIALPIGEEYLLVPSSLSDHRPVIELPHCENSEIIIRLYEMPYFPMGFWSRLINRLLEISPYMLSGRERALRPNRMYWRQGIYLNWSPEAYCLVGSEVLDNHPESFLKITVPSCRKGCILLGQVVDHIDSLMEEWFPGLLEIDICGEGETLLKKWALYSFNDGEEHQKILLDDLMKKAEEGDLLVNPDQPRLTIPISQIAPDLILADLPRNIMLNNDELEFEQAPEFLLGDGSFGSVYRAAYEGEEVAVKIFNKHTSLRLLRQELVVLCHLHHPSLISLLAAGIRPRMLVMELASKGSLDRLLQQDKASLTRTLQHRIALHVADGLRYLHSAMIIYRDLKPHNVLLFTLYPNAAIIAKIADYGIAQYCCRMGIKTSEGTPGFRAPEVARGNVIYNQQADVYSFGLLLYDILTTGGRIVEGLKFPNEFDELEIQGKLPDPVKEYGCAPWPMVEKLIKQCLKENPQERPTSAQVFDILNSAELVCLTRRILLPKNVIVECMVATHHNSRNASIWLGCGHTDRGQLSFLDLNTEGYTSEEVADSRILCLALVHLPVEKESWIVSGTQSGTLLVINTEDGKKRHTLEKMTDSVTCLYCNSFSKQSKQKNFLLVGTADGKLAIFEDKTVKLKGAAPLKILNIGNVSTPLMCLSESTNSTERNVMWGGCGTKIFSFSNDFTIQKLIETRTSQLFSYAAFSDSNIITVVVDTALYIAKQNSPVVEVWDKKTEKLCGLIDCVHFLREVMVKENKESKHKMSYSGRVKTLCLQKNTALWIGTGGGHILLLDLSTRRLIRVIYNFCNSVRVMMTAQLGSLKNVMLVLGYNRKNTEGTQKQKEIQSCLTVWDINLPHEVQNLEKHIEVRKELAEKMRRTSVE
Experimental: (§1) a) 100 nl of a 1:4 serial dilution of test compound with a top final assay concentration of 30 μM is added to certain wells in a low volume 384 well black plate. 100 nl of DMSO is used in certain wells as controls.
b) 3 μl enzyme solution (80 nM purified recombinant 6His-Tev-LRRK2 (1326-2527) in assay buffer: 50 mM Hepes (pH 7.2), 10 mM MgCl2, 150 mM NaCl, 5% glycerol, 0.0025% triton X-100 and 1 mM DTT) is added to certain wells.
Plates are then incubated for a further 1-2 hours at room temperature (incubation time varies depending upon rate and linearity of reaction with differing enzyme batches).
d) 6 μl detection solution (1:250 dilution of AlphaLisa Protein A Acceptor beads (PerkinElmer), 1:64 dilution of AlphaLisa Gluthathione Donor beads (PerkinElmer) and 1:600 dilution (dilution determined on a batch to batch basis) of Phospho-Ezrin (Thr567)/Radixin (Thr564)/Moesin (Thr558) Polyclonal Antibody (New England Biolabs) in a buffer: 50 mM Hepes (pH 7.5), 250 mM NaCl, 60 mM EDTA, 1% PEG and 0.01% Brij 35) is added to each well. Plates are then incubated for a further 2 hours at room temperature in the dark before reading on an EnVision™ plate reader with AlphaScreen HTS turbo option module and AlphaScreen settings. Data is analysed using ActivityBase software (IDBS).
LRRK2 AlphaScreen Desensitised Protein Substrate Assay
This is conducted as described for the LRRK2 alphascreen protein substrate assay, with the following differences: • 1. The concentration of ATP in the substrate solution was 2 mM. • 2. The plates were incubated for 20 minutes at room temperature following addition of the substrate solution. Pharmacological Data

[2] = target: T1, 6His-Tev-LRRK2 (1326-2527); assay: LRRK2 peptide substrate assay; format: biochemical; details: Biotin-LRRKtide peptide substrate, ATP at Km
Experimental: Compounds of formula (I) may be tested for in vitro kinase activity in accordance with the following assays, using the non natural, in vitro, substrates moesin and the Longer Biotin-LRRKtide. Moesin and a shorter version of the peptide were identified as substrates in Jaleel et al, (2007, Biochem J, 405: 307-317).
LRRK2 Peptide Substrate Assay
as §1
b) 3 μl enzyme solution (80 nM purified recombinant 6His-Tev-LRRK2 (1326-2527) in assay buffer: 50 mM Hepes (pH 7.2), 10 mM MgCl2, 150 mM NaCl, 5% glycerol, 0.0025% triton X-100 and 1 mM DTT) is added to certain wells. […] Plates are then incubated for a further 1-2 hours at room temperature (incubation time varies depending upon rate and linearity of reaction with differing enzyme batches). d) 6 μl detection solution (50 nM Streptavidin SureLight® APC (PerkinElmer), 4 nM Eu-W1024 labelled anti-rabbit IgG antibody (PerkinElmer), 1:500 dilution (dilution determined on a batch to batch basis) of Phospho-Ezrin (Thr567)/Radixin (Thr564)/Moesin (Thr558) Polyclonal Antibody (New England Biolabs) and 60 mM EDTA in buffer: 40 mM Hepes (pH 7.2), 150 mM NaCl, 0.03% BSA) is added to each well. Plates are then incubated for a further 2 hours at room temperature before reading on a suitable plate reader (Excitation 330 nm, emission 620 nm (Eu) and 665 nm (APC)). Data is analysed using ActivityBase software (IDBS). LRRK2 AlphaScreen Protein Substrate Assay

[3] = excess of ATP present (2 mM ATP), read-out: pIC50 in the LRRK2 alphascreen desensitised protein substrate assay (converted)
[4] = read-out: pIC50 in the LRRK2 peptide substrate assay (converted)

Compound | IC50 [2, 4] | IC50 ([2]; mean pIC50, read-out: LRRK2 peptide substrate assay (pIC50) (converted)) | IC50 [1, 3] | IC50 ([1]; mean pIC50, GST-PS-Moesin (400-577) substrate, 2 mM ATP (excess of ATP present), read-out: LRRK2 alphascreen desensitised protein substrate assay (pIC50) (converted))
O=C(Nc1cccnc1)c1cc(Br)ccc1OCc1cccc(F)c1 [Example 57, 5-Bromo-2-{[(3-fluorophenyl)methyl]oxy}-N-3-pyridinyl benzamide] | ≤ 100 nM | – | > 25.1 µM | –
O=C(Nc1cccnc1)c1cc(OC[C@H]2CCCN2)ccc1OCc1ccccc1 [Example 44, 2-[(Phenylmethyl)oxy]-N-3-pyridinyl-5-{[(2R)-2-pyrrolidinylmethyl]oxy}benzamide] | ≤ 10 nM | – | ≤ 20 µM | –
O=C(Nc1cccnc1)c1cc(Br)ccc1OCc1ccccc1F [Example 58, 5-Bromo-2-{[(2-fluorophenyl)methyl]oxy}-N-3-pyridinylbenzamide] | ≤ 10 nM | – | ≤ 20 µM | –
O=C(Nc1cccnc1)c1cc(CN2CCOCC2)ccc1OCc1ccccc1 [Example 69, 5-(4-Morpholinylmethyl)-2-[(phenylmethyl)oxy]-N-3-pyridinylbenzamide] | ≤ 100 nM | 15.8 nM | ≤ 20 µM | 0.501 µM
O=C(Nc1cccnc1)c1cc(CN2CCCC2)ccc1OCc1ccccc1 [Example 70, 2-[(Phenylmethyl)oxy]-N-3-pyridinyl-5-(1-pyrrolidinylmethyl)benzamide] | ≤ 100 nM | – | ≤ 20 µM | –
O=C(Nc1cncc(F)c1)c1cc(Br)ccc1OCc1ccccc1 [Example 98, 5-Bromo-N-(5-fluoro-3-pyridinyl)-2-[(phenylmethyl)oxy]benzamide] | ≤ 100 nM | – | > 25.1 µM | –
O=C(O)CCc1ccc(OCc2ccccc2)c(C(=O)Nc2cccnc2)c1 [Example 88, 3-{4-[(phenylmethyl)oxy]-3-[(3-pyridinylamino)carbonyl]phenyl}propanoic acid] | ≤ 100 nM | – | > 25.1 µM | –
CCOC(=O)CCc1ccc(OCc2ccccc2)c(C(=O)Nc2cccnc2)c1 [Example 87, Ethyl 3-{-4-[(phenylmethyl)oxy]-3-[(3-pyridinylamino)carbonyl]phenyl}propanoate] | ≤ 10 nM | – | ≤ 20 µM | –
O=C(Nc1cccnc1)c1cc(OC[C@@H]2CCCN2)ccc1OCc1ccccc1 [Example 46, 2-[(Phenylmethyl)oxy]-N-3-pyridinyl-5-{[(2S)-2-pyrrolidinylmethyl]oxy}benzamide] | ≤ 100 nM | – | ≤ 20 µM | –
O=C(Nc1cnoc1)c1cc(-c2ccncc2)ccc1OCc1ccccc1 [Example 63, N-4-Isoxazolyl-2-[(phenylmethyl)oxy]-5-(4-pyridinyl)benzamide] | ≤ 100 nM | – | ≤ 20 µM | –
NCCOCCOc1ccc(OCc2ccccc2)c(C(=O)Nc2cccnc2)c1 [Example 49, 5-({2-[(2-Aminoethyl)oxy]ethyl}oxy)-2-[(phenylmethyl)oxy]-N-3-pyridinylbenzamide] | ≤ 10 nM | – | ≤ 20 µM | –
Nc1cc(-c2ccc(OCc3ccccc3)c(C(=O)Nc3cccnc3)c2)ccn1 [Example 122, 5-(2-Amino-4-pyridinyl)-2-[(phenylmethyl)oxy]-N-3-pyridinylbenzamide] | ≤ 100 nM | – | ≤ 20 µM | –

More lines, main results first:

IC50 [2, 4] | IC50 ([2]; mean pIC50, read-out: LRRK2 peptide substrate assay (pIC50) (converted)) | Compound | IC50 [1, 3] | IC50 ([1]; mean pIC50, GST-PS-Moesin (400-577) substrate, 2 mM ATP (excess of ATP present), read-out: LRRK2 alphascreen desensitised protein substrate assay (pIC50) (converted))
≤ 10 nM | – | O=C(Nc1cccnc1)c1cc(-c2cccnc2)ccc1OCc1ccccc1 [Example 101, 2-[(Phenylmethyl)oxy]-N,5-di-3-pyridinylbenzamide] | ≤ 20 µM | –
≤ 100 nM | – | Cn1cc(-c2ccc(OCc3ccc(F)cc3)c(C(=O)Nc3cnoc3)c2)cn1 [Example 134, 2-{[(4-Fluorophenyl)methyl]oxy}-N-4-isoxazolyl-5-(1-methyl-1H-pyrazol-4-yl)benzamide] | ≤ 20 µM | –
≤ 100 nM | – | O=C(Nc1cccnc1)c1cc(-c2ccncc2)ccc1OCc1ccc(F)c(F)c1 [Example 109, 2-{[(3,4-Difluorophenyl)methyl]oxy}-N-3-pyridinyl-5-(4-pyridinyl)benzamide] | ≤ 20 µM | –
≤ 100 nM | – | O=C(Nc1cncc(F)c1)c1cc(-c2ccncc2)ccc1OCc1ccccc1 [Example 102, N-(5-Fluoro-3-pyridinyl)-2-[(phenylmethyl)oxy]-5-(4-pyridinyl)benzamide] | > 25.1 µM | –
≤ 10 nM | – | O=C(Nc1ccnnc1)c1cc(-c2ccncc2)ccc1OCc1ccccc1 [Example 74, 2-[(Phenylmethyl)oxy]-N-4-pyridazinyl-5-(4-pyridinyl)benzamide] | ≤ 20 µM | –
≤ 100 nM | – | Cn1cc(-c2ccc(OCc3ccc(F)c(F)c3)c(C(=O)Nc3ccnnc3)c2)cn1 [Example 105, 2-{[(3,4-Difluorophenyl)methyl]oxy}-5-(1-methyl-1H-pyrazol-4-yl)-N-4-pyridazinylbenzamide] | ≤ 20 µM | –
≤ 100 nM | – | O=C(Nc1ccnnc1)c1cc(-c2ccncc2)ccc1OCc1ccc(F)c(F)c1 [Example 106, 2-([(3,4-Difluorophenyl)methyl]oxy)-N-4-pyridazinyl-5-(4-pyridinyl)benzamide] | ≤ 20 µM | –
≤ 10 nM | – | O=C(Nc1cccnc1)c1cc(-c2cn[nH]c2)ccc1OCc1ccccc1 [Example 99, 2-[(Phenylmethyl)oxy]-5-(1H-pyrazol-4-yl)-N-3-pyridinylbenzamide] | ≤ 20 µM | –
≤ 10 nM | – | O=C(Nc1ccnnc1)c1cc(-c2cn[nH]c2)ccc1OCc1ccc(F)cc1 [Example 92, 2-{[(4-Fluorophenyl)methyl]oxy}-5-(1H-pyrazol-4-yl)-N-4-pyridazinylbenzamide] | ≤ 20 µM | –
≤ 100 nM | – | O=C(Nc1ccnnc1)c1cc(CN2CCOCC2)ccc1OCc1ccc(F)cc1 [Example 119, 2-{[(4-Fluorophenyl)methyl]oxy}-5-(4-morpholinylmethyl)-N-4-pyridazinyl benzamide] | ≤ 20 µM | –
